Our source for the IC50 values is article PMC3946725 (Archives of toxicology, 2013).

In this series the target is hERG cardiac potassium channel (Kv11.1) (Homo sapiens, UniProt Q12809). It is filed as cell-based. The following applies: hamster, cho cells.
Sequence of hERG cardiac potassium channel (Kv11.1) (Q12809 whole entry): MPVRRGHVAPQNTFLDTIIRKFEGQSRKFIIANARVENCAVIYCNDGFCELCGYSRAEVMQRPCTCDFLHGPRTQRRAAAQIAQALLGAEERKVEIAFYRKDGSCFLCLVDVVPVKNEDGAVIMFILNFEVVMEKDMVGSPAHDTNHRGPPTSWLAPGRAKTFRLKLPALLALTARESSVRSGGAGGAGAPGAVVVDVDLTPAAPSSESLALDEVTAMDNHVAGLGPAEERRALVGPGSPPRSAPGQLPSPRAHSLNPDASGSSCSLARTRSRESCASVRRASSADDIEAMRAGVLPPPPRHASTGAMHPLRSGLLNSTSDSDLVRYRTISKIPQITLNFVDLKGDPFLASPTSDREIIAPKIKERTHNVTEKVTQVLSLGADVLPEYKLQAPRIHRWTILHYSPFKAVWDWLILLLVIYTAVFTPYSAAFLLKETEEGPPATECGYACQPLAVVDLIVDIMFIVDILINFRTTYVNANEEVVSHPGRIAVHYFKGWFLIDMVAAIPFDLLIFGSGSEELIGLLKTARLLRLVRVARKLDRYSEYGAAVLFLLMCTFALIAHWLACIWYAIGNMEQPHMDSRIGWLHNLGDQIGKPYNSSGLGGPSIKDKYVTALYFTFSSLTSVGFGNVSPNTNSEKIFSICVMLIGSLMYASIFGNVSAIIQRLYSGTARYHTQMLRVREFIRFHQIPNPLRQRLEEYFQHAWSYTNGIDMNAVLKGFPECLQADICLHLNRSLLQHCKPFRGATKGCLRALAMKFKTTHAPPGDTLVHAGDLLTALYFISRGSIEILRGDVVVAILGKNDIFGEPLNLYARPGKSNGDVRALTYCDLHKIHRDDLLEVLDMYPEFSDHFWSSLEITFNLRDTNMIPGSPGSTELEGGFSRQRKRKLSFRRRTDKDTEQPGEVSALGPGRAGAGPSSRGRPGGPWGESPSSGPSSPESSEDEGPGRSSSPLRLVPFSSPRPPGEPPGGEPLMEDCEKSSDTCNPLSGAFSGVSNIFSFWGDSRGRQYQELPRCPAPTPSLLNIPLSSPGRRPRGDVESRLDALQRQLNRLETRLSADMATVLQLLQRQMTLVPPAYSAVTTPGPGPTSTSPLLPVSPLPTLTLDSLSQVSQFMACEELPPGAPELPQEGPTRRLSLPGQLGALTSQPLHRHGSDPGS

AZA-2 returned an IC50 of 2200 nM.
